Data: PMC10539439 (Pharmacological Reports, 2023)
Several values for one entry are separate records, joined by “and”; a condition that tells them apart may be missing. Equal values may be shown once. Read-outs that look alike come from different tables or passages of the source.

Assays:
TAAR1 [1] = target: T1, TAAR1 (Homo sapiens, UniProt Q96RJ0); parameters: method as in PMID 21525407; details: summary table; cited from earlier work
T1 sequence (Q96RJ0 1-339): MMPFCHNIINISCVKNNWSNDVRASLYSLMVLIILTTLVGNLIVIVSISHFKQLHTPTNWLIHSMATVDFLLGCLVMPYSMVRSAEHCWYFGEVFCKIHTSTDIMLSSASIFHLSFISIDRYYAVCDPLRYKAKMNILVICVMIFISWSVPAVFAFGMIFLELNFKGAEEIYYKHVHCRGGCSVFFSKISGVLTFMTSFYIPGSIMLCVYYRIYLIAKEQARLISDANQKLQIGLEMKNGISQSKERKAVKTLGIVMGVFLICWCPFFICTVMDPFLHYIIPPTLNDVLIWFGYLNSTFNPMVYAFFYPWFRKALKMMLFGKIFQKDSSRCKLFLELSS

[2] = 5 mg/kg b.w., i.p.; cited from earlier work
[3] = 5 mg/kg b.w., i.p.; cited from earlier work; remark: listed apart in the source
[4] = 5 mg/kg b.w., i.p.; cited from earlier work; remark: listed apart in the source
[5] = 5 mg/kg b.w., i.p.; cited from earlier work; remark: listed apart in the source
TAAR1 [6] = target: T1, TAAR1; assay: Intrinsic activity, Hit Hunter cAMP assay; type: cell-based
Protocol: The intrinsic activity study at cells with overexpression of TAAR1 (Eurofins, cat. No. 95-0173C2) was carried out at Eurofins Discoveries (Fremont, USA) using the Hit Hunter cAMP method. This assay monitors the activation of a GPCR via Gi and Gs secondary messenger signaling in a homogenous, non-imaging assay format using a technology developed by DiscoverX called Enzyme Fragment Complementation (EFC) with β-galactosidase (β-Gal) as the functional reporter. The enzyme is split into two complementary portions: EA for Enzyme Acceptor and ED for Enzyme Donor. ED is fused to cAMP and in the assay competes with cAMP generated by cells for binding to a cAMP-specific antibody. Active β-Gal is formed by complementation of exogenous EA to any unbound EDcAMP.
cAMP Hunter cell lines were expanded from freezer stocks according to standard procedures. Cells were seeded in a total volume of 20 µL into white-walled, 384-well microplates and incubated at 37 ℃ for the appropriate time prior to testing. For agonist determination, cells were incubated with a sample to induce a response. Media was aspirated from cells and replaced with 15 µL 2:1 HBSS/10 mM Hepes:cAMP XS + Ab reagent. Intermediate dilution of sample stocks was performed to generate 4X samples in assay buffer. 5 µL of 4 × sample was added to cells and incubated at 37 ℃ or room temperature for 30 or 60 min. Vehicle concentration was 1%. […] Microplates were read following signal generation with a PerkinElmer Envision instrument for chemiluminescent signal detection.

[7] = Spontaneous activity in the home cage (RFID, TraffiCage); type: in vivo, rat; details: for activity: hight-fat diet, 5mg/kg, after first administration, 5 mg/kg
Protocol: Rat spontaneous activity was monitored for 24 h on the 1st and 24th (after multiple administrations of tested compound or vehicle) day of treatment with a radio-frequency identification system (RFID system)—TraffiCage (TSE-Systems, Germany)—transponder-based activity monitoring under group housing. The animals had subcutaneously implanted transponder identification with RFID code, which allowed the presence and time spent in different areas of the home cage to be recorded. The data were collected with a dedicated platform, placed under the home cage, containing five RFID antennas (six cage areas) reading telemetrically the presence of RFID chips and stored for analysis with a dedicated computer program. The animals during the monitoring of spontaneous activity were in home cages and always had free access to food and water.

[8] = Body weight of non-obese rats fed a standard diet; type: in vivo, rat; details: for body weight of rat in g in particular day: standard diet, 5 mg/kg
Protocol: Male Wistar rats (190–220 g) were housed in pairs. The control group (standard diet + vehicle) received vehicle (water, ip), while the test group (standard diet + 4-OH-Guanabenz) was injected (ip) with 4-OH-Guanabenz at a dose of 5 mg/kg b.w. dissolved in water. Body weights were measured daily immediately prior to drug administration.

N=C(N)N/N=C/c1c(Cl)cccc1Cl [Guanabenz]
Intrinsic activity at TAAR1 (TAAR1 [1]): Agonist [48]
Spontaneous activity [2]: ↓ [17]
Plasma cholesterol level [3]: ↑ [17]
Plasma glucose level [3]: ↓ [17]
Plasma triglyceride level [3]: ↓ [17]
Core temperature [4]: ↓ [17]
Blood pressure after one administration [5]: Change [17]

Cl.N=C(N)NN=Cc1c(Cl)cc(O)cc1Cl [4-OH-Guanabenz, 2-[(2,6-Dichloro-4-hydroxyphenyl)methylene]hydrazinecarboximidamide Hydrochloride]
Intrinsic activity at TAAR1 (in words) (TAAR1 [6]): weak agonistic activity
EC50 (TAAR1 [6]; agonist, tested up to 10^–4 M, response at 10^–2 and 10^–1 M assumed 90–100% of tyramine, read-out: EC50 calculated after computer simulation): 331 µM
Average Value (raw signal) (TAAR1 [6]; cAMP, Agonist, Conc(M) 1e-6): 980.00
Value 1 / Value 2 (raw signal) (TAAR1 [6]; cAMP, Agonist, Conc(M) 1e-6): 960 and 1000
Average Value (raw signal) (TAAR1 [6]; cAMP, Agonist, Conc(M) 1e-5): 1140.00
Value 1 / Value 2 (raw signal) (TAAR1 [6]; cAMP, Agonist, Conc(M) 1e-5): 1080 and 1200
Average Value (raw signal) (TAAR1 [6]; cAMP, Agonist, Conc(M) 0.0001): 2200.00
Value 1 / Value 2 (raw signal) (TAAR1 [6]; cAMP, Agonist, Conc(M) 0.0001): 2200
% Efficacy (of the full agonist tyramine) (TAAR1 [6]; cAMP, Agonist, Conc(M) 0.0001 (10^–4 M)): 23.1%
Emax at 100 µM (TAAR1 [6]; cAMP, Agonist, Conc(M) 0.0001 (10^–4 M), read-out: % Efficacy (of the full agonist tyramine)): 23%
Intrinsic activity at TAAR1 (TAAR1 [6]; summary table): +
activity ([7]; hour 2, individual rats): 241 counts and 466 counts and 407 counts and 76 counts and 54 counts
activity ([7]; hour 3, individual rats): 175 counts and 744 counts and 1081 counts and 269 counts and 412 counts
activity ([7]; hour 4, individual rats): 468 counts and 421 counts and 262 counts and 105 counts and 179 counts
activity ([7]; hour 5, individual rats): 721 counts and 62 counts and 232 counts and 2 counts and 78 counts
activity ([7]; hour 6, individual rats): 248 counts and 6* counts and 445 counts and 569 counts and 80 counts
activity ([7]; hour 7, individual rats): 1058 counts and 287 counts and 302 counts and 211 counts and 276 counts
activity ([7]; hour 8, individual rats): 513 counts and 751 counts and 432 counts (2×) and 306 counts
activity ([7]; hour 9, individual rats): 853 counts and 240 counts and 521 counts and 547 counts and 173 counts
activity ([7]; hour 10, individual rats): 276 counts and 938 counts and 536 counts and 556 counts and 142 counts
activity ([7]; hour 11, individual rats): 504 counts and 558 counts and 708 counts and 326 counts and 403 counts
activity ([7]; hour 12, individual rats): 347 counts and 440 counts and 410 counts and 404 counts and 692 counts
activity ([7]; hour 13, individual rats): 674 counts and 446 counts and 516 counts and 428 counts and 684 counts
activity ([7]; hour 14, individual rats): 437 counts and 1077* counts and 632 counts and 394 counts and 897 counts
activity ([7]; hour 15, individual rats): 692 counts and 273 counts and 929 counts and 462 counts and 743 counts
activity ([7]; hour 16, individual rats): 387 counts and 825 counts and 409 counts and 821 counts and 664 counts
activity ([7]; hour 17, individual rats): 618 counts and 1081 counts and 250 counts and 383 counts and 813 counts
activity ([7]; hour 18, individual rats): 339 counts and 628 counts and 260 counts and 133 counts and 576 counts
activity ([7]; hour 19, individual rats): 608 counts and 953 counts and 971 counts and 592 counts and 271 counts
activity ([7]; hour 20, individual rats): 298 counts and 398 counts and 614 counts and 684 counts and 663 counts
activity ([7]; hour 21, individual rats): 215 counts and 344 counts and 275 counts and 266 counts and 475 counts
effect on spontaneous activity (in words) ([7]; obese rats, after the first and 24th administration, 5 mg/kg b.w.): no effect
effect on body weight (in words) ([8]; rats fed standard diet, 5 mg/kg b.w. ip): No significant effects on body weight
body weight of rat in g in particular day ([8]; day 1, individual rats): 206 g and 214 g and 229 g and 239 g
body weight of rat in g in particular day ([8]; day 2, individual rats): 206 g and 217 g and 231 g and 242 g
body weight of rat in g in particular day ([8]; day 3, individual rats): 203 g and 214 g and 223 g and 240 g
body weight of rat in g in particular day ([8]; day 4, individual rats): 207 g and 216 g and 230 g and 238 g
body weight of rat in g in particular day ([8]; day 5, individual rats): 210 g and 220 g and 230 g and 241 g
body weight of rat in g in particular day ([8]; day 6, individual rats): 212 g and 222 g and 230 g and 241 g
body weight of rat in g in particular day ([8]; day 7, individual rats): 212 g and 218 g and 231 g and 244 g
body weight of rat in g in particular day ([8]; day 8, individual rats): 214 g and 212 g and 227 g and 240 g
body weight of rat in g in particular day ([8]; day 9, individual rats): 210 g (2×) and 222 g and 237 g
body weight of rat in g in particular day ([8]; day 10, individual rats): 212 g and 215 g and 225 g and 240 g
body weight of rat in g in particular day ([8]; day 11, individual rats): 213 g and 214 g and 222 g and 239 g
body weight of rat in g in particular day ([8]; day 12, individual rats): 211 g and 213 g and 224 g and 241 g
body weight of rat in g in particular day ([8]; day 13, individual rats): 214 g and 212 g and 225 g and 242 g
body weight of rat in g in particular day ([8]; day 14, individual rats): 215 g and 211 g and 225 g and 239 g
body weight of rat in g in particular day ([8]; day 15, individual rats): 217 g and 211 g and 224 g and 242 g
body weight of rat in g in particular day ([8]; day 16, individual rats): 217 g and 213 g and 225 g and 242 g
body weight of rat in g in particular day ([8]; day 17, individual rats): 218 g and 212 g and 226 g and 243 g
body weight of rat in g in particular day ([8]; day 18, individual rats): 218 g and 214 g and 227 g and 243 g
body weight of rat in g in particular day ([8]; day 19, individual rats): 219 g and 214 g and 227 g and 244 g
body weight of rat in g in particular day ([8]; day 20, individual rats): 220 g and 215 g and 228 g and 244 g
body weight of rat in g in particular day ([8]; day 21, individual rats): 220 g and 216 g and 228 g and 245 g
body weight of rat in g in particular day ([8]; day 22, individual rats): 221 g and 216 g and 229 g and 245 g
body weight of rat in g in particular day ([8]; day 23, individual rats): 221 g and 217 g and 229 g and 246 g
body weight of rat in g in particular day ([8]; day 24, individual rats): 220 g and 217 g and 230 g and 246 g
body weight of rat in g in particular day ([8]; day 25, individual rats): 221 g and 218 g and 230 g and 247 g
